Read-outs that look alike come from different tables or passages of the source.
Experiments:
MCF-7 cells [1] = assay: Cell viability assay (MTT/AlamarBlue), antiproliferative activity; assay type: cell-based, human; details: read-out: IC50 (MCF-7, 72 h)
How it was run: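 MCF-7 cells seeded, left 24 h at 37 °C, then exposed 72 h to compound (1 nM–200 μM, or 0.001–100 μM) in ethanol or DMSO vehicle (≤1% ethanol, 0.1% DMSO). Viability read by MTT (1 mg/mL final, 3 h) or AlamarBlue (10% v/v, 3–5 h), relative to untreated controls as 100%.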

MCF-7 cells [2] = assay: Lactate dehydrogenase (LDH) assay for cytotoxicity; assay type: cell-based; details: Homo sapiens, MCF7; MCF-7, compound concentration 10 μM, 24 h; read-out: Lactate Dehydrogenase assay: % cell lysis (cell death)
Protocol: The toxicity and selectivity of 10n towards normal cells was investigated in the non-tumourigenic cell line HEK-293T (normal human epithelial embryonic kidney cells). […] The cytotoxic effect of selected 3-chloro-β-lactams 10e, 10f, 10i, 10n and 3,3-dichloro-β-lactams 11e and 11n in MCF-7 cells was initially determined using the lactate dehydrogenase (LDH) assay.
The cytotoxicity of selected compounds was determined using the CytoTox 96 non-radioactive cytotoxicity assay (Promega Corporation, Madison, WI, USA). Briefly, MCF-7 cells were seeded in a 96-well plate (200 μL per well), at a density of 2.5 × 10^4 cells/mL, and incubated for 24 h. The cells were then treated with selected β-lactam compounds as described above for the cell viability assay. […] Supernatant (50 μL) was removed from each well to a 96-well plate. Reconstituted ‘CytoTox 96® Reagent (50 μL) was added to each well and the plate was placed in the dark at 20 °C for 30 min. ‘Stop solution’ (50 μL) was added to each well and the samples were analysed at 490 nm using a Dynatech MR5000 plate reader. The percentage cell death at 10 μM was calculated.

HOP-62 = assay: NCI-60 5 dose screen, NSC Lung Cancer; assay type: cell-based; details: Homo sapiens
NCI-H552 = assay: NCI-60 5 dose screen, NSC Lung Cancer; assay type: cell-based; details: Homo sapiens
KM12 = assay: NCI-60 5 dose screen, Colon Cancer; assay type: cell-based; details: Homo sapiens
SNB-19 = assay: NCI-60 5 dose screen, CNS Cancer; assay type: cell-based; details: Homo sapiens
LOX IMV1 = assay: NCI-60 5 dose screen, Melanoma; assay type: cell-based; details: Homo sapiens
MALME-3M = assay: NCI-60 5 dose screen, Melanoma; assay type: cell-based; details: Homo sapiens
SK-MEL-2 = assay: NCI-60 5 dose screen, Melanoma; assay type: cell-based; details: Homo sapiens
SK-MEL-5 = assay: NCI-60 5 dose screen, Melanoma; assay type: cell-based; details: Homo sapiens
UACC-257 = assay: NCI-60 5 dose screen, Melanoma; assay type: cell-based; details: Homo sapiens
OVCAR-3 = assay: NCI-60 5 dose screen, Ovarian Cancer; assay type: cell-based; details: Homo sapiens
T-47D = assay: NCI-60 5 dose screen, Breast Cancer; assay type: cell-based; details: Homo sapiens, T47D
MDA-MB-468 = assay: NCI-60 5 dose screen, Breast Cancer; assay type: cell-based; details: Homo sapiens
[3] = tested on: purified bovine brain tubulin; assay: In vitro tubulin polymerisation assay; details: for Fold-Reduction of Vmax of tubulin polymerisation: 10 µM; for Vmax at 10 µM: 10 µM compound, tubulin 3 mg/mL, vehicle 0.0069
[4] = Homo sapiens, MCF7, 72 h, MCF-7, 72 h

Row | Structure (SMILES) | IC50 (MCF-7 cells [1]; [4]) [nM] | cytotoxicity at 10 µM (MCF-7 cells [2]) [%] | GI50 (HOP-62; read-out: GI50) [nM] | GI50 (NCI-H552; NCI-H552, read-out: GI50) [nM] | GI50 (KM12; read-out: GI50) [nM] | GI50 (SNB-19; read-out: GI50) [nM] | GI50 (LOX IMV1; read-out: GI50) [nM] | GI50 (MALME-3M; read-out: GI50) [nM] | GI50 (SK-MEL-2; read-out: GI50) [nM] | GI50 (SK-MEL-5; read-out: GI50) [nM] | GI50 (UACC-257; read-out: GI50) [nM] | GI50 (OVCAR-3; read-out: GI50) [nM] | GI50 (T-47D; T-47D, read-out: GI50) [nM] | GI50 (MDA-MB-468; read-out: GI50) [nM] | Fold-Reduction of Vmax of tubulin polymerisation [3] [fold] | Vmax at 10 µM [3] [mOD/min] | IC50 (MCF-7 cells [1]; MCF-7, 72 h) [nM] | further results
1 | COc1ccc([C@H]2[C@H](Cl)C(=O)N2c2cc(OC)c(OC)c(OC)c2)cc1 (relative stereo) [Compound 10e trans, Trans-3-chloro-1-(3,4,5-trimethoxyphenyl)-4-(4-methoxyphenyl) azetidin-2-one] | 56 ± 7 | 5 | 53.8 | 20.7 | 39.3 | 74.6 | 67.6 | 88.4 | 45 | 31.2 | 23300 | 24.1 | 15800 | 50.8 | 1.8 | 0.0039 |  | 
2 | COc1ccc(/C=C\c2cc(OC)c(OC)c(OC)c2)cc1O [CA-4, Combretastatin A-4] | 3.9 | 12 |  |  |  |  |  |  |  |  |  |  |  |  |  | 0.0022 | 4 | 
3 | COc1ccc(C2C(Cl)C(=O)N2c2cc(OC)c(OC)c(OC)c2)cc1O (stereo not shown) [Compound 10n, 3-Chloro-4-(3-hydroxy-4-methoxy-phenyl)-1-(3,4,5-trimethoxyphenyl)azetidin-2-one] | 17.5 ± 9 | 17 |  |  |  |  |  |  |  |  |  |  |  |  |  |  | 17 ± 9 | 
4 | COc1ccc(C2N(c3cc(OC)c(OC)c(OC)c3)C(=O)C2(Cl)Cl)cc1O (stereo not shown) [Compound 11n, 3,3-Dichloro-4-(3-hydroxy-4-methoxyphenyl)-1-(3,4,5-trimethoxyphenyl)azetidin-2-one] |  | 8 |  |  |  |  |  |  |  |  |  |  |  |  | 1.7 | 0.0041 |  | IC50 (MCF-7 cells [1]; Homo sapiens, MCF7, 72 h): 31 ± 4 nM; GI50 (HOP-62): 35 nM; GI50 (NCI-H552): 16.4 nM; GI50 (KM12): 31.8 nM; GI50 (SNB-19): 45.7 nM; GI50 (LOX IMV1): 41.5 nM; GI50 (MALME-3M): 68.5 nM; GI50 (SK-MEL-2): 31.6 nM; GI50 (SK-MEL-5): 22.5 nM; GI50 (UACC-257): 158 nM; GI50 (OVCAR-3): 24.4 nM; GI50 (T-47D): 11600 nM; GI50 (MDA-MB-468): 22.6 nM
5 | CCSc1ccc(C2C(Br)C(=O)N2c2cc(OC)c(OC)c(OC)c2)cc1 (stereo not shown) [Compound 16d, 3-Bromo-4-(4-(ethylthio)phenyl)-1-(3,4,5-trimethoxyphenyl)azetidin-2-one] | 1100 ± 100 |  | 336 | 158 | 202 | 440 | 834 | 11300 | 484 | 86.1 | 14300 | 109 | 16900 | 154 |  |  |  | 

Reference: PMC8624998, “Synthesis and Antiproliferative Evaluation of 3-Chloroazetidin-2-ones with Antimitotic Activity: Heterocyclic Bridged Analogues of Combretastatin A-4” (Pharmaceuticals, 2021)
